Experimental data from PubChem BioAssay AID252 (DTP/NCI, 2004).
Where “and” joins values, the source holds several entries; their conditions need not be identical. Equal entries are not always repeated. Inconclusive results and toxic doses are left out.

Test system: BDF1 mice, intracerebral L1210 leukemia, survival T/C
Test: NCI In Vivo Anticancer Drug Screen. Data for tumor model L1210 Leukemia (intracerebral) in B6D2F1 (BDF1) mice
Conditions: endpoint: mean survival time, higher = longer survival
How it was run: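 Antitumour effect is judged in mice with transplanted tumour by comparing survival of treated (T) against vehicle-dosed (C) groups as T/C.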

[1] = dose: 25.0 mg/kg/injection, schedule: Q01DX001 (ip), vehicle: carboxymethylcellulose (CMC)
[2] = dose: 100.0 mg/kg/injection, schedule: Q01DX001 (ip), vehicle: carboxymethylcellulose (CMC)

CCCCCCCCSc1ncnc2c1ncn2CC
T/C (dose: 62.0 mg/kg/injection, schedule: Q01DX015 (ip), vehicle: carboxymethylcellulose (CMC)): 97 % of control
T/C (dose: 125.0 mg/kg/injection, schedule: Q01DX015 (ip), vehicle: carboxymethylcellulose (CMC)): 103 % of control
T/C (dose: 250.0 mg/kg/injection, schedule: Q01DX015 (ip), vehicle: carboxymethylcellulose (CMC)): 116 % of control
T/C (dose: 500.0 mg/kg/injection, schedule: Q01DX015 (ip), vehicle: carboxymethylcellulose (CMC)): 94 % of control

O=NN(CCCl)C(=O)Nc1ccc(F)cc1
T/C (dose: 11.0 mg/kg/injection, schedule: Q01DX001 (ip), vehicle: carboxymethylcellulose (CMC)): 109 % of control
T/C (dose: 16.6 mg/kg/injection, schedule: Q01DX001 (ip), vehicle: carboxymethylcellulose (CMC)): 112 % of control
T/C [1]: 109 % of control
T/C (dose: 37.5 mg/kg/injection, schedule: Q01DX001 (ip), vehicle: carboxymethylcellulose (CMC)): 108 % of control

CC12CC3(C)CC(C)(C1)CC(NC(=O)N(CCCl)N=O)(C2)C3
T/C (dose: 45.0 mg/kg/injection, schedule: Q01DX001 (ip), vehicle: other): 95 % of control
T/C (dose: 60.0 mg/kg/injection, schedule: Q01DX001 (ip), vehicle: other): 97 % of control
T/C (dose: 90.0 mg/kg/injection, schedule: Q01DX001 (ip), vehicle: other): 104 % of control
T/C (dose: 125.0 mg/kg/injection, schedule: Q01DX001 (ip), vehicle: other): 110 % of control
T/C (dose: 187.0 mg/kg/injection, schedule: Q01DX001 (ip), vehicle: other): 112 % of control

CNC1=C(N2CC2)C(=O)C(NC)=C(N2CC2)C1=O
T/C (dose: 0.05 mg/kg/injection, schedule: Q01DX009 (ip), vehicle: saline): 106 % of control
T/C (dose: 0.1 mg/kg/injection, schedule: Q01DX009 (ip), vehicle: saline): 111 % of control
T/C (dose: 0.2 mg/kg/injection, schedule: Q01DX009 (ip), vehicle: saline): 160 % of control
T/C (dose: 0.3 mg/kg/injection, schedule: Q01DX009 (ip), vehicle: saline): 119 % of control
T/C (dose: 0.4 mg/kg/injection, schedule: Q01DX009 (ip), vehicle: saline): 103 % of control
T/C (dose: 0.6 mg/kg/injection, schedule: Q01DX009 (ip), vehicle: saline): 160 % of control

C=CC(CN1CC1)OC(C)=O (centres undefined)
T/C (dose: 2.5 mg/kg/injection, schedule: Q01DX Z (ip), vehicle: saline): 119 % of control
T/C (dose: 11.0 mg/kg/injection, schedule: Q01DX001 (ip), vehicle: saline): 113 % of control and 117 % of control
T/C (dose: 17.0 mg/kg/injection, schedule: Q01DX001 (ip), vehicle: saline): 117 % of control
T/C (dose: 25.0 mg/kg/injection, schedule: Q01DX001 (ip), vehicle: saline): 119 % of control
T/C (dose: 25.0 mg/kg/injection, schedule: Q01DX Z (ip), vehicle: saline): 120 % of control
T/C (dose: 30.0 mg/kg/injection, schedule: Q01DX Z (ip), vehicle: saline): 105 % of control

CC1(NC(=O)N(CCCl)N=O)CCCC1
T/C (dose: 12.5 mg/kg/injection, schedule: Q01DX001 (ip), vehicle: carboxymethylcellulose (CMC)): 91 % of control
T/C [1]: 102 % of control
T/C (dose: 50.0 mg/kg/injection, schedule: Q01DX001 (ip), vehicle: carboxymethylcellulose (CMC)): 100 % of control
T/C [2]: 100 % of control
T/C (dose: 125.0 mg/kg/injection, schedule: Q01DX001 (ip), vehicle: carboxymethylcellulose (CMC)): 347 % of control
T/C (dose: 187.0 mg/kg/injection, schedule: Q01DX001 (ip), vehicle: carboxymethylcellulose (CMC)): 285 % of control
T/C (dose: 250.0 mg/kg/injection, schedule: Q01DX001 (ip), vehicle: carboxymethylcellulose (CMC)): 276 % of control

O=NN(CCCl)C(=O)Nc1cccc(Cl)c1
T/C (dose: 44.0 mg/kg/injection, schedule: Q01DX001 (ip), vehicle: carboxymethylcellulose (CMC)): 102 % of control
T/C (dose: 67.0 mg/kg/injection, schedule: Q01DX001 (ip), vehicle: carboxymethylcellulose (CMC)): 100 % of control
T/C (dose: 77.0 mg/kg/injection, schedule: Q01DX001 (ip), vehicle: carboxymethylcellulose (CMC)): 107 % of control
T/C [2]: 98 % of control
T/C (dose: 117.0 mg/kg/injection, schedule: Q01DX001 (ip), vehicle: carboxymethylcellulose (CMC)): 103 % of control
T/C (dose: 175.0 mg/kg/injection, schedule: Q01DX001 (ip), vehicle: carboxymethylcellulose (CMC)): 108 % of control
T/C (dose: 252.0 mg/kg/injection, schedule: Q01DX001 (ip), vehicle: carboxymethylcellulose (CMC)): 103 % of control
